# Measurements taken from the supplement of paper PMC11061612.
# Tests used:
# Test in all cases: Bliss excess, mean over the matrix (fraction); higher = more synergy
# [1] = tested on: COR-L95 (Small Cell Lung Carcinoma)
# How it was run: (§1)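 After 24 hours at 37°C and 5% CO2 in 1536-well plates, cells in DMEM/F12 or RPMI plus 10% FBS received two-drug dose matrices for 72 hours. Viability came from CellTiter-Glo 2.0 luminescence and was scaled as inhibition, anchored at 0 by vehicle wells and at 1 by blank wells. Combination Emax is taken as the second-highest inhibition in the matrix, and Bliss excess as the observed combination effect less EA + EB − EA·EB, with EA and EB the single-agent effects.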
# [2] = tested on: SUIT-2 (Pancreatic Carcinoma)
# How it was run: as §1
# [3] = tested on: KATOIII (Gastric Carcinoma)
# How it was run: as §1
# [4] = tested on: NCI-H1299 (Non-Small Cell Lung Carcinoma)
# How it was run: as §1
# [5] = tested on: KARPAS-1106P (B-Cell Non-Hodgkin's Lymphoma)
# How it was run: as §1
# SN12C (Kidney Carcinoma) = tested on: SN12C (Kidney Carcinoma)
# How it was run: as §1
# [6] = tested on: DB (B-Cell Non-Hodgkin's Lymphoma)
# How it was run: as §1
# ES7 (Ewing's Sarcoma) = tested on: ES7 (Ewing's Sarcoma)
# How it was run: as §1
# [7] = tested on: 697 (B-Lymphoblastic Leukemia)
# How it was run: as §1
# [8] = tested on: IHH-4 (Thyroid Gland Carcinoma)
# How it was run: as §1
# [9] = tested on: LS-513 (Colorectal Carcinoma)
# How it was run: as §1
# [10] = tested on: KARPAS-620 (Plasma Cell Myeloma)
# How it was run: as §1
# [11] = tested on: OCI-AML2 (Acute Myeloid Leukemia)
# How it was run: as §1
# [12] = tested on: SW1088 (Low Grade Glioma)
# How it was run: as §1
# [13] = tested on: NCI-H1694 (Small Cell Lung Carcinoma)
# How it was run: as §1
# [14] = tested on: MDA-MB-157 (Breast Carcinoma)
# How it was run: as §1
# [15] = tested on: CFPAC-1 (Pancreatic Carcinoma)
# How it was run: as §1
# J82 (Bladder Carcinoma) = tested on: J82 (Bladder Carcinoma)
# How it was run: as §1
# DSH1 (Bladder Carcinoma) = tested on: DSH1 (Bladder Carcinoma)
# How it was run: as §1
# [16] = tested on: KM-H2 (Hodgkin's Lymphoma)
# How it was run: as §1
SMILES,Bliss excess [1],Bliss excess [2],Bliss excess [3],Bliss excess [4],Bliss excess [5],Bliss excess (SN12C (Kidney Carcinoma)),Bliss excess [6],Bliss excess (ES7 (Ewing's Sarcoma)),Bliss excess [7],Bliss excess [8],Bliss excess [9],Bliss excess [10],Bliss excess [11],Bliss excess [12],Bliss excess [13],Bliss excess [14],Bliss excess [15],Bliss excess (J82 (Bladder Carcinoma)),Bliss excess (DSH1 (Bladder Carcinoma)),Bliss excess [16]
"CC(=O)c1c(C)c2cnc(Nc3ccc(N4CCNCC4)cn3)nc2n(C2CCCC2)c1=O [Palbociclib] + CC1(C)CCC(CN2CCN(c3ccc(C(=O)NS(=O)(=O)c4ccc(NCC5CCOCC5)c([N+](=O)[O-])c4)c(Oc4cnc5[nH]ccc5c4)c3)CC2)=C(c2ccc(Cl)cc2)C1 [Venetoclax] (first compound max 10 µM, 7x7, partner max 1 µM)",-0.0581,-0.0454,-0.0606,0.0231,-0.0424,-0.0525,0.0187,0.0277,-0.0738,0.0096,0.0202,0.0056,0.0188,-0.018,0,-0.0348,0.015,-0.0388,-0.0361,-0.0011
"C=CCn1c(=O)c2cnc(Nc3ccc(N4CCN(C)CC4)cc3)nc2n1-c1cccc(C(C)(C)O)n1 [AZD1775] + O=C(c1cc(Cc2n[nH]c(=O)c3ccccc23)ccc1F)N1CCN(C(=O)C2CC2)CC1 [Olaparib] (first compound max 1 µM, partner max 10 µM)",-0.101,-0.0049,-0.0227,-0.0048,-0.0513,-0.0136,-0.0788,-0.0453,0.0782,0.0194,0.0008,-0.0324,0.0249,0.0045,-0.036,-0.0379,-0.0585,-0.025,-0.0534,0.0084
"Cc1cc2ncnn2cc1Nc1ncc2c(n1)n(C1CCOCC1)c(=O)n2C [AZD7648] + CCN(CCO)CCCOc1ccc2c(Nc3cc(CC(=O)Nc4cccc(F)c4)[nH]n3)ncnc2c1 [AZD2811] (first compound max 10 µM, 7x7, partner max 1 µM)",-0.003,-0.0169,-0.0526,0.0093,0.0642,-0.01,0.0438,-0.0538,0.018,0.0429,-0.0033,0.0088,-0.0004,-0.0312,0.0483,0.0572,0.0181,-0.0488,0.0145,0.0507
"COc1cccc(OCCCN)c1-c1cc(Nc2cnc(C#N)cn2)n[nH]1 [Prexasertib] + O=C(c1cc(Cc2n[nH]c(=O)c3ccccc23)ccc1F)N1CCN(C(=O)C2CC2)CC1 [Olaparib] (first compound max 1 µM, 7x7, partner max 10 µM)",-0.121,-0.0219,-0.149,-0.0694,-0.0936,-0.0425,-0.0327,0.0058,0.0371,-0.0827,-0.0666,-0.046,-0.0242,-0.0707,-0.0596,-0.104,-0.0834,0.033,-0.162,-0.0611
"CC1(C)CCC(CN2CCN(c3ccc(C(=O)NS(=O)(=O)c4ccc(NCC5CCOCC5)c([N+](=O)[O-])c4)c(Oc4cnc5[nH]ccc5c4)c3)CC2)=C(c2ccc(Cl)cc2)C1 [Venetoclax] + CCN(CCO)CCCOc1ccc2c(Nc3cc(CC(=O)Nc4cccc(F)c4)[nH]n3)ncnc2c1 [AZD2811] (first compound max 1 µM, 7x7, partner max 1 µM)",0.0474,-0.0135,-0.0226,-0.0358,-0.0125,-0.0267,0.0416,0.0074,0.0078,-0.0288,-0.0407,0.169,0.0892,-0.0469,0.0477,0.0119,-0.024,-0.014,-0.0142,0.0106
"CC(=O)Nc1cccc(-n2c(=O)n(C3CC3)c(=O)c3c(Nc4ccc(I)cc4F)n(C)c(=O)c(C)c32)c1 [Trametinib] + Cc1nc(-c2cn3c(n2)-c2ccc(-c4cnn(C(C)(C)C(N)=O)c4)cc2OCC3)n(C(C)C)n1 [Taselisib] (first compound max 1 µM, 7x7, partner max 10 µM)",0.0096,0.0928,0.0938,0.121,0.088,0.0395,-0.004,0.0164,0.117,-0.0242,0.0113,0.24,0.0227,0.0579,0.0583,0.0963,0.148,0.0623,0.0704,0.0338
"Cn1cnc2c(F)c(Nc3ccc(Br)cc3Cl)c(C(=O)NOCCO)cc21 [Selumetinib] + C=CCn1c(=O)c2cnc(Nc3ccc(N4CCN(C)CC4)cc3)nc2n1-c1cccc(C(C)(C)O)n1 [AZD1775] (first compound max 10 µM, partner max 1 µM)",-0.0464,-0.0417,0.0186,-0.02,-0.0358,-0.0228,-0.193,-0.0548,-0.0131,-0.0083,-0.0339,0.0719,0.0274,-0.0468,-0.067,0.0096,-0.0439,-0.0614,-0.0355,-0.0685
"Cn1cnc2c(F)c(Nc3ccc(Br)cc3Cl)c(C(=O)NOCCO)cc21 [Selumetinib] + CC(C)n1c(=O)n(C)c2cnc3cc(F)c(-c4ccc(OCCCN5CCCCC5)nc4)cc3c21 [AZD1390] (first compound max 10 µM, 7x7, partner max 0.3 µM)",-0.016,-0.0294,0.011,-0.012,-0.0376,-0.0313,-0.0488,-0.0301,-0.0227,-0.0326,-0.0395,0.0201,-0.0079,-0.0368,-0.0085,-0.032,-0.0627,0.0142,-0.0002,-0.027
"CCN(CCO)CCCOc1ccc2c(Nc3cc(CC(=O)Nc4cccc(F)c4)[nH]n3)ncnc2c1 [AZD2811] + O=C(c1cc(Cc2n[nH]c(=O)c3ccccc23)ccc1F)N1CCN(C(=O)C2CC2)CC1 [Olaparib] (first compound max 1 µM, 7x7, partner max 10 µM)",-0.0526,-0.0254,-0.0332,-0.0131,-0.0229,0.0151,-0.0544,-0.0184,0.0165,0.0229,-0.0158,0.0273,-0.0351,-0.0539,0.0406,0.032,0.0077,-0.0207,0.0082,0.0789
"Cc1cc2ncnn2cc1Nc1ncc2c(n1)n(C1CCOCC1)c(=O)n2C [AZD7648] + C=CCn1c(=O)c2cnc(Nc3ccc(N4CCN(C)CC4)cc3)nc2n1-c1cccc(C(C)(C)O)n1 [AZD1775] (first compound max 10 µM, partner max 1 µM)",-0.0543,-0.0403,-0.0052,-0.0314,-0.0202,-0.0188,-0.0984,-0.0044,0,0.0233,-0.023,-0.0493,-0.0039,-0.0479,-0.0234,0.0003,0.0525,-0.008,0.0281,-0.0201
"CC(=O)c1c(C)c2cnc(Nc3ccc(N4CCNCC4)cn3)nc2n(C2CCCC2)c1=O [Palbociclib] + Cn1cnc2c(F)c(Nc3ccc(Br)cc3Cl)c(C(=O)NOCCO)cc21 [Selumetinib] (first compound max 10 µM, 7x7, partner max 10 µM)",-0.0843,0.0481,0.0393,0.108,0.0399,-0.0321,-0.0167,0.0067,-0.0685,0.0575,0.0207,0.166,0.0685,-0.0327,-0.0989,-0.0396,-0.0354,-0.0538,-0.0834,0.0036
"COc1nnc2ccc(N3CCC(c4ccc(OCCN5CCN(C)C(=O)[C@H]5C)cc4)CC3)nn12 [AZD5153] + C=CCn1c(=O)c2cnc(Nc3ccc(N4CCN(C)CC4)cc3)nc2n1-c1cccc(C(C)(C)O)n1 [AZD1775] (first compound max 1 µM, partner max 1 µM)",0.0012,0.0152,-0.148,-0.0278,-0.0966,-0.128,-0.0996,-0.0364,-0.0478,-0.0294,-0.0603,-0.0559,-0.0293,-0.0364,-0.0205,-0.0313,-0.119,0.0514,-0.132,-0.101
"CN(CCO)CC[C@H](CSc1ccccc1)Nc1ccc(S(=O)(=O)NC(=O)c2ccc(N3CCC([C@@H](O)c4ccccc4-c4ccc(Cl)cc4)CC3)cc2)cc1S(=O)(=O)C(F)(F)F [AZD4320] + C[C@@H](Nc1cc(F)cc(F)c1)c1cc(C(=O)N(C)C)cc2c(=O)cc(N3CCOCC3)oc12 [AZD8186] (first compound max 1 µM, 7x7, partner max 3 µM)",0.0256,0.025,-0.0856,0.0118,0.0758,-0.0193,-0.0096,0.136,-0.003,0.0438,-0.0076,0.0147,0.0556,0.0357,0.0454,0.0338,0.0585,-0.0061,-0.0381,0.0237
"COc1nnc2ccc(N3CCC(c4ccc(OCCN5CCN(C)C(=O)[C@H]5C)cc4)CC3)nn12 [AZD5153] + C[C@@H]1COCCN1C2=NC(=NC(=C2)C3(CC3)[S@](=N)(=O)C)C4=C5C=CNC5=NC=C4 [AZD6738] (first compound max 1 µM, 7x7, partner max 10 µM)",-0.0357,0.0468,-0.0164,-0.0088,-0.0455,-0.0091,0.0071,-0.0245,-0.0106,-0.0118,-0.0211,-0.0429,-0.0143,0.0059,0.008,-0.0138,0.015,0.104,0.0321,-0.008
